In assay [1] the target is T1, Tyrosine-protein kinase Yes (Homo sapiens, UniProt P07947). Kind of assay: Inhibition of Yes1 (unknown origin) by [gamma-33P]-ATP radiolabeled enzyme activity assay.
Assay [2] addresses T1, Tyrosine-protein kinase Yes. Kind of assay: Inhibition of Yes1 (unknown origin) assessed as kinase-dependent enzymatic production of ADP from ATP using coupled luminescence-based reaction by ADP-Glo kinase assay.
Assay [3] can be described thus: Antiproliferative activity against human Rh30 cells after 48 hrs by CellTiter-Glo luminescent assay. Conditions: SJRH30, 48 h.
A further assay concerns RD. The assay is described as follows: Antiproliferative activity against human RD cells after 48 hrs by CellTiter-Glo luminescent assay.

pIC50: −log10 of the molar value.

T1 sequence (P07947 whole entry): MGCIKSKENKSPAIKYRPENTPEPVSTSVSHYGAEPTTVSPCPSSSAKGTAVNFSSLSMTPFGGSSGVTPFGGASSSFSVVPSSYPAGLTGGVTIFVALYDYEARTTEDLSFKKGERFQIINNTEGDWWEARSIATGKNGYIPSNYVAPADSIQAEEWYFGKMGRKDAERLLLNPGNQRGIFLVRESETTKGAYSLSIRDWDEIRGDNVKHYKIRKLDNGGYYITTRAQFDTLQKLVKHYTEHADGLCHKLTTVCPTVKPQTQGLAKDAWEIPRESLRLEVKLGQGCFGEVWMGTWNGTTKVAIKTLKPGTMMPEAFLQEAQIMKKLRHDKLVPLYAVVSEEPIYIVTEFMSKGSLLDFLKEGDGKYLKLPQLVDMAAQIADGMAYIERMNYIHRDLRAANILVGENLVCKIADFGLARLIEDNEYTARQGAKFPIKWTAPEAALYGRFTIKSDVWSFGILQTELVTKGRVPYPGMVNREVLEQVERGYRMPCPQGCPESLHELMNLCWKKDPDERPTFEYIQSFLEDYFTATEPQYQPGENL

For `c1cc(-c2cnn3cc(-c4ccc(OCCN5CCCCC5)cc4)cnc23)ccn1` [DORSOMORPHIN], the pIC50 in assay [1] was 7.53; in assay [2], 6.71.
`CC(C)Oc1cc(Nc2nc(N[C@@H](C)c3ccc(F)cn3)ncc2Cl)n[nH]1`: the pIC50 in assay [3] was 5.74; in assay [1] it was 8.52; with RD, 5.28; in assay [2], 7.41.
As for `CN1CCC(CNc2ccc3ncc(-c4cccc(OC(F)(F)F)c4)n3n2)CC1` [SGI-1776], the figures for the negative logarithm of the IC50 (pIC50) in assay [1] and in assay [2] were 6.62 and 5.57, respectively.
